Our source for the inhibition values is patent EP0968998A1, “Cosmetic compositions, ceramide analogues with anti-elastase activity and process for their preparation” (ELF ATOCHEM S.A., priority 1998, dated 2000).

The test concerns the target T1, élastase de leucocytes humains (Homo sapiens, UniProt P08246).
T1 construct: purchased Elastin Products Co. SE 563; host or cells: human leukocytes, as the enzyme's name says
T1 sequence (P08246 30-267): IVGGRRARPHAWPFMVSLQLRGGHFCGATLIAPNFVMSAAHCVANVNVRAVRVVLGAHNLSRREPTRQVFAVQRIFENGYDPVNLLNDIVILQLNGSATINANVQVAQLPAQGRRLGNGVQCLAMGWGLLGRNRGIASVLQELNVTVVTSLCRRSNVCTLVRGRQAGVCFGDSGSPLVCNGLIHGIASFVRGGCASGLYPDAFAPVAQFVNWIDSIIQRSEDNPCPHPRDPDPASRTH
As to the kind of experiment: Anti-elastase activity: release of p-nitroaniline from N-succinyl-(Ala)3-p-nitroanilide, spectrophotometry at 410 nm. It is filed as biochemical. The note with it: pH 8, 37°C, pH8, 5 min preincubation, substrate 250 µM, read-out: % I (%). The source says: Les exemples qui suivent permettent d'illustrer l'invention. Dans ces exemples, on utilise les méthodes d'analyse suivantes : - Spectrographie infrarouge (IR) Les spectres sont réalisés au moyen d'un appareil PERKIN ELMER 1760 IRTF, en dispersion dans KBr à 1 %. Les valeurs sont exprimées en nombre d'onde par centimètre. - Résonance magnétique nucléaire (RMN) Les spectres sont réalisés au moyen d'un appareil BRUCKER DRX 500, à 500 MHz (^1H) et 125 MHz (^13C) dans le DMSO-d6. La calibration de l'appareil est effectuée au moyen de DMSO. Les déplacements chimiques sont exprimés en ppm. L'aspect des signaux est noté : singulet (s), doublet (d), triplet (t), quadruplet (q), multiplet (m), quintuplet (*5) et couplage AB (AB). - Mesure de l'activité anti-élastase L'activité anti-élastase est mesurée selon la méthode qui consiste à faire réagir l'élastase de leucocytes humains (référence SE 563; Elastin Products Co.; Owensville, MO, USA) avec le N-succinyl-(Ala)3-p-nitroanilide (réf. S4760; Sigma) et mesurer la libération de p-nitroaniline. On utilise le N-succinyl-(Ala)3-p-nitroanilide en solution dans le tétrahydrofurane et une solution d'élastase à 100 mg/ml dans un mélange de glycérol et de tampon acétate de sodium (50/50; v/v), pH5. L'activité de l'enzyme est mesurée à 37°C dans 100 mM de tampon Tris-HCI, pH8 contenant 0,01 % de Triton X-100 (volume/volume) et 0,02 % d'azide de sodium (poids/volume). Le céramide à tester, solubilisé dans le tétrahydrofurane (concentration en THF = 0,5 % en volume) est préincubé en présence de l'enzyme (0,05 mg/ml) dans le tampon pendant 5 minutes à 37°C. On ajoute le N-succinyl-(Ala)3-p-nitroanilide (concentration finale : 250 µM) et on mesure la libération de la p-nitroaniline dans une cuve en quartz par spectrophotométrie à 410 nm. La capacité inhibitrice du céramide est exprimée en pourcentage d'inhibition (% I) selon la relation : %I = (1 -(Vi)/(Vo))×100 [formula] dans laquelle Vi et Vo sont les vitesses d'apparition de la p-nitroaniline en présence et en absence d'inhibiteur respectivement. - Mesure de l'amélioration de la barrière cutanée a) mesure de la Perte Insensible en Eau (PIE) La mesure de la PIE permet de quantifier la très faible quantité d'eau qui diffuse passivement à travers le stratum corneum. Ce paramètre représente un très bon index de la fonction barrière du stratum corneum. Cette méthode est surtout utilisée pour contrôler l'efficacité de formules cosmétiques qui, contenant certains types de lipides sont capables de diminuer la PIE et, en conséquence, d'empêcher la déshydratation du stratum corneum. La sonde est laissée en contact de la peau pendant 2 minutes environ de façon à atteindre une position d'équilibre. PIE = D'(dP)/(dx)(gradient de pression de vapeur) [formula] Les valeurs sont exprimées en g/m^2/heure et permettent de calculer un delta de PIE = PIE (peau traitée) - PIE (peau témoin). L'appareil utilisé est un Evaporimètre EPI de Servomed. Les mesures sont effectuées sur deux groupes de 15 volontaires sains ayant une peau sèche, avant l'application du produit (t=0) et après l'application (t=0,5 heure, 1 heure, 3 heures et 6 heures) sur la face interne des deux avant-bras. L'analogue de céramide selon l'invention ou le céramide témoin est incorporé dans une crème ayant la composition suivante (en % en poids) : […]

Regarding `CCCCCCCCCCCCCCCCCC(=O)NC(CC)(CO)COC(=O)CCCCCCCCCCCCCCCCC` (centres unmarked) [Exemple 4, 1-stéaroyl-2-éthyl-2-stéaroylamino-1,3-propanediol], the inhibition at 250 µM (Concentration 250 µM) amounted to 67%. Under “Concentration 500 µM”, the inhibition at 500 µM was determined as 86%.
